Test results published in patent publication US20100261666A1, “COMPOSITIONS AND METHODS FOR THE TREATMENT OF MYOCARDIAL DYSFUNCTION ASSOCIATED WITH SIRS OR SEPSIS” (THE BOARD OF TRUSTEES OF THE UNIVERSITY OF ILLINOIS, priority 2009, published 2010).

Experiments:
ADA1 = experiment: Real time PCR, left ventricular ADA1 mRNA expression; type: in vivo, rat
Protocol: (§1) Total RNA was isolated from left ventricular tissue using the SV Total Isolation System (Promega Corp., Madison, Wis.). Isolation was performed according to manufacturer instructions and followed by DNAse treatment to eliminate residual genomic DNA contamination. RNA integrity was determined by loading 1.0 μg of total RNA isolate from each sample onto a 1.0% agarose gel and staining with ethidium bromide to visualize the 18 and 28s RNA bands. The amount of RNA recovered was determined using the Ribogreen RNA Quantification Kit (Molecular Probes, Eugene, Oreg.). 1 μg of total RNA was reverse transcribed in a 20-4 volume using random hexamer primers with enzyme and buffers supplied in the cDNA First Strand Synthesis kit (MRI Fermentas, Hanover, Md.). First strand cDNA was treated with ribonuclease H to remove residual RNA.
Real time PCR (qPCR) was performed to measure RNA transcripts for left ventricular TNF-α and ADA1. Three housekeeping genes were selected as follows to produce an intergroup correction factor for target transcripts: Cyclophilin A, hypoxanthine-guanine physphoribosyltransferase (HPRT), and β-actin. Primers were selected using Primer 3 software (Rosen and Skaletsky, Whitehead Institute for Biomedical Research) with the rat genomic sequences for TNF gene, ADA gene, HPRT gene, β-actin gene, and Cyclophilin gene as templates. BLAST (National Center for Biotechnology Information) searches were used to verify that the selected primers were specific for the designated target.
Specific primer sequences, GenBank accession numbers, Sequence Identifiers, and product sizes are disclosed in Table 5. Primers were used in a standard PCR with the 2× Master Mix PCR reagent (MRI Fermentas) and cDNA from the tissue of interest as a template. The thermocycling profile consisted of one cycle of 95° C. for 10 minutes, followed by 41 cycles of 95° C. for 1 minute, 61° C. for 1 minute, and 72° C. for 1 minute and a final cycle of 72° C. for 10 minutes. Products were run on a 1.0% agarose gel and stained with ethidium bromide to confirm that only one band was amplified and that no primer dimers were present. PCR products were then column-purified (QIAGEN, Valencia, Calif.) and sequenced to confirm target specificity. For real-time PCRs, SYBR PCR Master Mix (Bio-Rad Laboratories, Hercules, Calif.) was used, and thermocycling and fluorescence detection was performed using a Stratagene Mx3000p real-time PCR machine.
Standards were then amplified by real-time PCR, and standard curves were generated using Stratagene Mx3000P software. […]
A housekeeping gene was selected for normalization of the real-time PCR data for the TNF-α and ADA1 transcripts. Three potential gene (mRNA) products were analyzed for this purpose: CYC, β-actin and HPRT.

TNF-α = experiment: Real time PCR, left ventricular TNF-α mRNA expression; type: in vivo, rat; details: LPS infusion
Protocol: as §1, with “1 μg of total RNA was reverse transcribed in a 20-4 volume using random hexamer primers with enzyme and buffers supplied in the cDNA First Strand Synthesis kit (MRI Fermentas, Hanover, Md.). First strand cDNA was treated with ribonuclease H to remove residual RNA.” left out
Specific primer sequences, GenBank accession numbers, Sequence Identifiers, and product sizes are disclosed in Table 5. […] For real-time PCRs, SYBR PCR Master Mix (Bio-Rad Laboratories, Hercules, Calif.) was used, and thermocycling and fluorescence detection was performed using a Stratagene Mx3000p real-time PCR machine.
After confirmation of primer efficiency and specificity, the concentrations of purified products generated by standard PCR were determined using Molecular Probe's Picogreen DNA quantification kit, and PCR products were serially diluted to obtain standards containing 10^1, 10^2, 10^3, 10^4, 10^5, and 10^6 copies of synthetic template. […]

rat isolated hearts = experiment: Langendorff rat isolated heart procedure: left ventricular function and coronary flow; type: in vivo; details: for Coronary flow Baseline / Coronary flow 30 min / Coronary flow 60 min / Coronary flow 90 min / Coronary flow 120 min / Coronary flow 150 min: mean ± SEM
Protocol: Male Sprague Dawley, virus-free rats (Harlan) were used in each of the examples presented herein. After arrival and a brief acclimation (72 hours minimum), animals were randomized into control or experimental groups. The control and experimental protocols (Table 1) and experimental group treatments (Table 2) are described below.
Rat isolated heart experiments were performed via Langendorff method. […] CON hearts received vehicle (IP sterile water). […] Heparin was allowed to circulate for 60 seconds at which time a thoracotomy was performed to expose the heart. The heart was quickly removed, placed in ice cold Krebs-Ringers bicarbonate buffer (KRB, described below) and weighed. The ascending aorta was rapidly cannulated and the heart was attached, via the cannula, to the perfusion apparatus. The hearts were perfused with a modified KRB containing (102 mM NaCl, 4.75 mM KCl, 1.20 mM KH2PO4, 1.18 mM MgSO4, 22.75 mM NaHCO3, 11.50 mM Glucose, 4.96 mM Na-Pyruvate, 5.40 mM Na-Fumarate and 1 mM CaCl2), at a temperature of 37.0° C., and pH 7.4 as maintained by vigorous bubbling with 95%/5% O2/CO2.
At all times, hearts were perfused with KRB at a pressure of 72-78 mmHg set by the height of the water-jacketed reservoir. The left atrium of the heart was then removed, just above the left atrio-ventricular valve. A latex balloon was used to measure left ventricular pressure as an index of cardiac performance. The balloon was constructed by filling the reservoir tip of a latex condom with degassed water. PE-50 tubing, pre-filled with degassed water and attached to a stopcock/Hamilton screw-top syringe assembly, was flanged and placed into the tip of the condom. Surgical silk (5-0) was used to gather the condom tip around the flanged end of the tubing and form a seal, at which time the excess latex was removed.
The balloon/stopcock assembly was attached to a pressure transducer (Spectramed-Statham) and inserted into the left ventricle to record cardiac performance data via Windaq (DATAQ, CA). Two platinum electrodes, connected to a electrical stimulator (Grass Model 92C), were placed at the lateral edges of the right atria in order to pace the heart at 300 BPM using a voltage 10% greater than that required to capture rhythm. The volume in the latex balloon was increased to produce a left ventricular diastolic pressure (LVdiaP) of 10.0 mmHg.
The heart was then perfused normally for 30 minutes, a period designated as the equilibration phase. During this phase of perfusion hearts had to maintain a LVdiaP of 10.0±2.0 mmHg to be included in the study. At the end of thirty minutes, baseline measurements of coronary flow and left ventricular pressure were made. This time point was designated as 0 minutes. At this time, hearts receiving LPS (10 μg/mL/min) were infused via injection port/stop cock assembly, into the KRB perfusion stream, just above the aortic cannula for a total infusion time of 60 minutes. Hearts not receiving LPS were infused with vehicle (sterile water, 1.25% coronary flow (mL)·min). At 60 minutes, infusion was halted and normal KRB perfusion continued for 90 minutes (total experimental time post-equilibration=150 minutes).
Measurements of coronary flow and left ventricular pressure were taken every 30 minutes starting at 0 minutes. At the termination of the experiment, the left ventricle was rapidly excised from the whole heart, flash frozen in liquid nitrogen and stored at −80.0° C. for further analysis.
Statistical analysis was performed on data generated from these experimental protocols using a one-way analysis of variance (one-way ANOVA) with pair wise comparisons (Fisher Least Significant Difference test (LSD)). Data is presented herein as mean±standard error of the mean (SEM).
The Fisher LSD was used to determine whether 30 and 150 min values differed from baseline values. In addition, changes from baseline values (e.g., 30 or 150 minute value−respective baseline value) were compared among groups.

ADA = ADA (Homo sapiens, UniProt P00813); details: cited from earlier work
Chain of ADA (P00813 whole entry, species assumed): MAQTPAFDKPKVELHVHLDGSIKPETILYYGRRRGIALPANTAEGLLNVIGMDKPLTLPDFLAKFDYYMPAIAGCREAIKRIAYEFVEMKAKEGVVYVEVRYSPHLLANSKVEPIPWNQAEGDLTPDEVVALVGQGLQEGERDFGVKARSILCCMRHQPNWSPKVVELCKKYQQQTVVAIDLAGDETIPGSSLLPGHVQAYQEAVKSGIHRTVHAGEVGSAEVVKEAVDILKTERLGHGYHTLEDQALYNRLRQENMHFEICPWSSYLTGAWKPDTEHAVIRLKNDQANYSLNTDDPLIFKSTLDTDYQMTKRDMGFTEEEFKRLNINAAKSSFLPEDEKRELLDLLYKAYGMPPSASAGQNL

## Oc1ncnc2[nH]ncc12 [ALO, allopurinol]
ADA1; LPS infusion
  left ventricular ADA1 mRNA expression (copy numbers) compared to CON and LPS hearts: No significant differences
ADA1; vehicle infusion
  left ventricular ADA1 mRNA expression (copy numbers) compared to CON and LPS hearts: No significant differences
TNF-α
  left ventricular TNF-α mRNA expression compared to LPS hearts: significantly lower
Rat isolated hearts; LPS infusion 10 μg/mL/min (-LPS group)
  Coronary flow Baseline: 24.1 ± 1.3 mL/min
Rat isolated hearts; LPS infusion (-LPS group)
  Coronary flow 30 min: 24.2 ± 1.1 mL/min
  Coronary flow 60 min: 24.7 ± 1.4 mL/min
  Coronary flow 90 min: 24.5 ± 1.4 mL/min
  Coronary flow 120 min: 23.4 ± 1.7 mL/min
  Coronary flow 150 min: 22.5 ± 1.7 mL/min
Rat isolated hearts; LPS infusion, 30 minutes
  +dP/dt compared to respective baseline: significantly greater
  LV developed pressure compared to respective baseline: significantly greater
  LV diastolic pressure compared to respective baseline: significantly decreased
  increase in LV developed pressure compared to LPS group: of a similar magnitude
  increase in LV systolic pressure compared to LPS group: of a similar magnitude
  increase in −dP/dt compared to LPS group: similar
Rat isolated hearts; LPS infusion, 150 minutes
  +dP/dt compared to LPS hearts: did not statistically change
  +dP/dt compared to respective baseline: significantly decreased
  LV developed pressure compared to LPS hearts: of a similar magnitude
  LV developed pressure compared to respective baseline: significantly decreased
  LV diastolic pressure (LPS-induced increase) compared to LPS hearts: attenuation
  LV systolic pressure compared to respective baseline: significantly decreased
  −dP/dt compared to LPS alone / among groups: did not significantly affect
  −dP/dt compared to respective baseline: significantly decreased
Rat isolated hearts; vehicle infusion (-CON group)
  Coronary flow 30 min: 25.9 ± 1.8 mL/min
  Coronary flow 60 min: 25.1 ± 1.9 mL/min
  Coronary flow 90 min: 24.7 ± 1.9 mL/min
  Coronary flow 120 min: 24.1 ± 1.6 mL/min
  Coronary flow 150 min: 22.6 ± 1.4 mL/min
  Coronary flow Baseline: 25.4 ± 2.1 mL/min
Rat isolated hearts; vehicle infusion, 30 minutes
  LV diastolic pressure compared to respective baseline: No changes
Rat isolated hearts; vehicle infusion, 150 minutes
  LV developed pressure compared to respective baseline: No changes
  LV diastolic pressure compared to respective baseline: remained unchanged
  LV systolic pressure compared to respective baseline: no change
  −dP/dt compared to respective baseline: remained unchanged

## OC[C@H]1O[C@@H](n2cnc3c2N=CNCC3O)C(O)[C@H]1O (some centres unmarked) [coformycin]
ADA
  Ki: 0.01 nM
